One experiment concerns B16-F10 cells. In words: Cell proliferation assay (CellTiter-Glo) in B16-F10 cells with IFN-gamma. Format: cell-based. To be noted: 120 h, mouse IFN-gamma 10 ng/mL, read-out: PTPN2 Prolif 5d B16F10 EC50.
The target in experiment [1] is T1, PTPN2 (Homo sapiens (Human), UniProt P17706). Nature of the experiment: Phosphatase activity assay using DiFMUP as substrate. The format is biochemical. To be noted: PTPN2 0.15 nM, 10 mM DTT. On the procedure:
The PTPN2 biochemical assay was performed as follows, a 5× stock solution of human PTPN2 (SRP5075, MilliporeSigma, Burlington, MA) and a 1.25× stock solution of DiFMUP (D6567, ThermoFisher Scientific, Waltham, MA), were prepared in 1× reaction buffer consisting of 50 mM HEPES, pH 7.4, 1 mM EDTA, 150 mM NaCl, 0.2 mg/mL BSA, 100 U/mL catalase and 10 mM DTT. […] of the DiFMUP substrate solution, for a final concentration of […] DiFMUP substrate, was added to a Corning 3574 384-well, white, non-binding surface microtiter plate containing […] of serially diluted test compounds prepared in DMSO. The reactions were started with the addition of […] of the enzyme solution, for a final PTPN2 concentration of 0.15 nM, and monitored every 105 seconds for 60 minutes at λEX 360/λEM 460 in a BioTek Synergy HTX plate reader (Agilent Technologies, Santa Clara, CA) at room temperature. The initial linear portions of the progress curves were fit according to a linear equation to yield the slopes and converted to % inhibition based on a value of 100% activity for the no inhibitor treated control. IC50 values of each compound were obtained by fitting the % inhibition-compound concentration curves using Dotmatics software (Dotmatics, Bishops Stortford, Hertfordshire, England),
Target sequence in this assay (P17706 other isoform, or with tags, fused parts or gaps isoform P17706-2): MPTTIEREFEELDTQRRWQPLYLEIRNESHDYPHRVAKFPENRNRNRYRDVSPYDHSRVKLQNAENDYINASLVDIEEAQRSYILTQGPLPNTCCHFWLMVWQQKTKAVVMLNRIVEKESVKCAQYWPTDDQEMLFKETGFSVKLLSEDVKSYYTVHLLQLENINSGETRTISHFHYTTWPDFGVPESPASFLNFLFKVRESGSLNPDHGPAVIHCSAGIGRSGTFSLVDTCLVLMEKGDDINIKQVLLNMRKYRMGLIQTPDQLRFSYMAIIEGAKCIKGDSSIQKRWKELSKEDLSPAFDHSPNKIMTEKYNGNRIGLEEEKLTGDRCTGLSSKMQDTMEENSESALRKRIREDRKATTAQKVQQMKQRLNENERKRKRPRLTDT

Experiment [2] addresses T1, PTPN2. In words: PhosphoSens assay (PTPN2 BCHEM). To be noted: substrate AQT0264 20 μM, PTPN2 150 pM. Format: biochemical. The method, then: A PhosphoSens® kinase assay was performed as described by the vendor (AssayQuant Technologies, Marlborough, MA). Briefly, 1000× solutions of compounds were prepared in DMSO via serial dilution of the 10 mM DMSO stocks using 3-fold intervals in a 384-well reagent plate. 50 nL of the compound dilution series was then added to the corresponding wells of a 384-well assay plate. […] Finally, […] of 5× PTPN2 enzyme stock was added to each well of the assay plate for a final enzyme concentration of 150 pM. Reaction progress curves were collected by sampling fluorescence intensity at the excitation wavelength 360 nm (λex360) and emission wavelength 480 nm (λem480) every 71 seconds for one hour using a Synergy H4 plate reader (BioTek Instruments/Agilent Technologies, Winooski, VT) at room temperature.
Target sequence in this assay (P17706 whole entry): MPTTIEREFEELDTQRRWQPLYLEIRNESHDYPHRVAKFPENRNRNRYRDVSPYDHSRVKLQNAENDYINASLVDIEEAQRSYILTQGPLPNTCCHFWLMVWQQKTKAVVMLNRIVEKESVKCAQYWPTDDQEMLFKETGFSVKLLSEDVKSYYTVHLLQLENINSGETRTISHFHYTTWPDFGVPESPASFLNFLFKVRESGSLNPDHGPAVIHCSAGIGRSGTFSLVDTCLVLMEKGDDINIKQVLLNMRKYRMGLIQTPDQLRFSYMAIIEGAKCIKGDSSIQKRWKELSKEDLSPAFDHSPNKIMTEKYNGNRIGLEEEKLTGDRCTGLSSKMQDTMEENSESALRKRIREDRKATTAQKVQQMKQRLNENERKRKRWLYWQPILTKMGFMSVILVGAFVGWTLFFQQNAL

The test system of experiment [3] is phosphorylated STAT1 in B16-F10 cells. In words: Phospho-STAT1 (Tyr701) HTRF assay in B16-F10 cells with IFN-gamma. Format: cell-based. To be noted: mouse IFN-gamma 100 ng/mL, 1 hour, read-out: pSTAT1 HTRF B16F10 EC50. The method, then:
B16-F10 cells (ATCC, Manassas, VA, #CRL-6475) were cultured in DMEM growth medium (ThermoFisher Scientific, Waltham, MA, #11995-040) supplemented with 10% heat-inactivated FBS (ThermoFisher Scientific, #16140-071) and 1% pen/strep (ThermoFisher Scientific, #15140-122). The cells were seeded into a white opaque 384-well tissue culture treated microplate (PerkinElmer, Waltham, MA, #6007688) at a density of 10,000 cells/well in 20 uL total volume and incubated overnight at 37 C and 5% CO2. 30 nL of compounds dissolved in DMSO were then transferred from a source plate into target wells with the Echo650 acoustic liquid handler (Beckman Coulter, Indianapolis, IN). Negative control wells received 30 nL of DMSO only (0.15% final concentration). Plates were returned to the incubator for 1 hour and then cells were treated with either 5 uL of growth medium or 5 uL of growth medium containing 500 ng/mL of recombinant mouse IFN-gamma protein (R&D Systems, Minneapolis, MN, #485-MI/CF, 100 ng/mL final concentration) using the Assist automated pipetting platform (INTEGRA Biosciences, Hudson, NH). Plates were incubated at 37 C for 1 hour and assayed for phosphorylated STAT1 protein levels with the phospho-STAT1 (Tyr701) HTRF kit (Cisbio, Bedford, MA, #63ADK026PEH) according to the manufacturer's instructions.

Some results are limits rather than exact numbers.

With `O=C1CN(c2c(O)cc(CNc3cc(C4CC4)ccn3)cc2F)S(=O)(=O)N1` [EXAMPLE 1, 5-[4-[[(4-cyclopropyl-2-pyridyl)amino]methyl]-2-fluoro-6-hydroxy-phenyl]-1,1-dioxo-1,2,5-thiadiazolidin-3-one], the EC50 turned out to be 580 nM in the experiment on B16-F10 cells and 260 nM in experiment [3]. Also, the IC50 at PTPN2 [1] worked out at 1 nM; on PTPN2 [2], 6 nM.
Consider `O=C1CN(c2c(O)cc(CNc3cc(C(F)(F)F)ccn3)cc2F)S(=O)(=O)N1` [EXAMPLE 2, 5-[2-fluoro-6-hydroxy-4-[[[4-(trifluoromethyl)-2-pyridyl]amino]methyl]phenyl]-1,1-dioxo-1,2,5-thiadiazolidin-3-one], for which the EC50 with B16-F10 cells is 2670 nM; in experiment [3], 2430 nM. The IC50 came to 350 nM at PTPN2 [1] and 80 nM at PTPN2 [2].
Take `O=C1CN(c2c(O)cc(CNc3ncccc3C(F)(F)F)cc2F)S(=O)(=O)N1` [EXAMPLE 3, 5-[2-fluoro-6-hydroxy-4-[[[3-(trifluoromethyl)-2-pyridyl]amino]methyl]phenyl]-1,1-dioxo-1,2,5-thiadiazolidin-3-one]: the EC50 (with B16-F10 cells; in experiment [3]) was more than 15000 nM each time. Also, the IC50 is 1000 nM on PTPN2 [1] and 570 nM at PTPN2 [2].
For `CC(C)(C)c1ccc(NCc2cc(O)c(N3CC(=O)NS3(=O)=O)c(F)c2)nc1` [EXAMPLE 4, 5-[4-[[(5-tert-butyl-2-pyridyl)amino]methyl]-2-fluoro-6-hydroxy-phenyl]-1,1-dioxo-1,2,5-thiadiazolidin-3-one], the EC50 with B16-F10 cells is 670 nM; in experiment [3] it was 1030 nM. The IC50 on PTPN2 [1] is 8 nM; on PTPN2 [2], 30 nM.
Turning to `COc1cc(NCc2cc(O)c(N3CC(=O)NS3(=O)=O)c(F)c2)nc(OC)c1` [EXAMPLE 18, 5-[4-[[(4,6-dimethoxy-2-pyridyl)amino]methyl]-2-fluoro-6-hydroxy-phenyl]-1,1-dioxo-1,2,5-thiadiazolidin-3-one], the EC50 (in the experiment on B16-F10 cells; in experiment [3]) was 670 nM in each case. Also, at PTPN2 [1], the IC50 was 20 nM.
`COc1ccc(OC)c(NCc2cc(O)c(N3CC(=O)NS3(=O)=O)c(F)c2)n1` [EXAMPLE 21, 5-[4-[[(3,6-dimethoxy-2-pyridyl)amino]methyl]-2-fluoro-6-hydroxy-phenyl]-1,1-dioxo-1,2,5-thiadiazolidin-3-one]: the EC50 in the experiment with B16-F10 cells amounted to 6700 nM; in experiment [3], 9450 nM. For the same compound, on PTPN2 [1], the IC50 was 20 nM.
On the same counts, the results for `COc1ccnc(NCc2cc(O)c(N3CC(=O)NS3(=O)=O)c(F)c2)c1OC` [EXAMPLE 27, 5-[4-[[(3,4-dimethoxy-2-pyridyl)amino]methyl]-2-fluoro-6-hydroxy-phenyl]-1,1-dioxo-1,2,5-thiadiazolidin-3-one] are 1710 nM, more than 15000 nM and 810 nM.
On the same counts, the results for `COc1ccc(C)c(NCc2cc(O)c(N3CC(=O)NS3(=O)=O)c(F)c2)n1` [EXAMPLE 29, 5-[2-fluoro-6-hydroxy-4-[[(6-methoxy-3-methyl-2-pyridyl)amino]methyl]phenyl]-1,1-dioxo-1,2,5-thiadiazolidin-3-one] are 9020 nM, 7380 nM and 5 nM.
Taken in the same sequence, the figures for `COc1cc(C)cc(NCc2cc(O)c(N3CC(=O)NS3(=O)=O)c(F)c2)n1` [EXAMPLE 39, 5-(2-fluoro-6-hydroxy-4-(((6-methoxy-4-methylpyridin-2-yl)amino)methyl)phenyl)-1,2,5-thiadiazolidin-3-one 1,1-dioxide] were 4710 nM, 1940 nM and 140 nM.
`N#Cc1cccc(NCc2cc(O)c(N3CC(=O)NS3(=O)=O)c(F)c2)n1` [EXAMPLE 40, 6-[[3-fluoro-5-hydroxy-4-(1,1,4-trioxo-1,2,5-thiadiazolidin-2-yl)phenyl]methylamino]pyridine-2-carbonitrile]: the EC50 in the experiment on B16-F10 cells was found to be 2190 nM; in experiment [3], 1750 nM. Further, at PTPN2 [1], the half-maximal inhibitory concentration (IC50) amounted to 5 nM.
As to `COc1cc(C)nc(NCc2cc(O)c(N3CC(=O)NS3(=O)=O)c(F)c2)c1` [EXAMPLE 41, 5-[2-fluoro-6-hydroxy-4-[[(4-methoxy-6-methyl-2-pyridyl)amino]methyl]phenyl]-1,1-dioxo-1,2,5-thiadiazolidin-3-one], the EC50 in the experiment on B16-F10 cells was found to be 50 nM; in experiment [3] it was 59 nM. On PTPN2 [1], the IC50 was 2 nM.
`O=C1CN(c2c(O)cc(CNc3cccc(C(F)F)n3)cc2F)S(=O)(=O)N1` [EXAMPLE 42, 5-[4-[[[6-(difluoromethyl)-2-pyridyl]amino]methyl]-2-fluoro-6-hydroxy-phenyl]-1,1-dioxo-1,2,5-thiadiazolidin-3-one]: the EC50 is 160 nM in the experiment on B16-F10 cells and 4700 nM in experiment [3]. The IC50 at PTPN2 [1] is 40 nM.
With `O=C1CN(c2c(O)cc(CNc3cccc(OC(F)F)n3)cc2F)S(=O)(=O)N1` [EXAMPLE 43, 5-[4-[[[6-(difluoromethoxy)-2-pyridyl]amino]methyl]-2-fluoro-6-hydroxy-phenyl]-1,1-dioxo-1,2,5-thiadiazolidin-3-one], the figures for the EC50 (in the experiment on B16-F10 cells; in experiment [3]) were 6570 nM and more than 15000 nM, respectively. For the same compound, the IC50 at PTPN2 [1] is 110 nM.
On the same counts, the results for `CN(C)c1cccc(NCc2cc(O)c(N3CC(=O)NS3(=O)=O)c(F)c2)n1` [EXAMPLE 44, 5-(4-(((6-(dimethylamino)pyridin-2-yl)amino)methyl)-2-fluoro-6-hydroxyphenyl)-1,2,5-thiadiazolidin-3-one 1,1-dioxide] are 5750 nM, 4850 nM and 10 nM.
Taken in the same sequence, the figures for `Cc1cc(Br)nc(NCc2cc(O)c(N3CC(=O)NS3(=O)=O)c(F)c2)c1` [EXAMPLE 48, 5-(4-(((6-bromo-4-methylpyridin-2-yl)amino)methyl)-2-fluoro-6-hydroxyphenyl)-1,2,5-thiadiazolidin-3-one 1,1-dioxide] were 4620 nM, 3110 nM and 40 nM.
On to `Cc1cc(NCc2cc(O)c(N3CC(=O)NS3(=O)=O)c(F)c2)nc(N2CCOCC2)c1` [EXAMPLE 49, 5-(2-fluoro-6-hydroxy-4-(((4-methyl-6-morpholinopyridin-2-yl)amino)methyl)phenyl)-1,2,5-thiadiazolidin-3-one 1,1-dioxide], for which the EC50 with B16-F10 cells came to 14700 nM; in experiment [3] it was 4820 nM. Also, the IC50 on PTPN2 [1] was 20 nM.
Take `O=C1CN(c2c(O)cc(CNc3cccc(=O)[nH]3)cc2F)S(=O)(=O)N1` [EXAMPLE 51, 5-(2-fluoro-6-hydroxy-4-(((6-oxo-1,6-dihydropyridin-2-yl)amino)methyl)phenyl)-1,2,5-thiadiazolidin-3-one 1,1-dioxide]: the EC50 in the experiment with B16-F10 cells was determined as 600 nM; in experiment [3] it was 200 nM. In addition, on PTPN2 [1], the IC50 was 0.2 nM.
`Cc1cc(Oc2ccccc2)cc(NCc2cc(O)c(N3CC(=O)NS3(=O)=O)c(F)c2)n1` [EXAMPLE 52, 5-(2-fluoro-6-hydroxy-4-(((6-methyl-4-phenoxypyridin-2-yl)amino)methyl)phenyl)-1,2,5-thiadiazolidin-3-one 1,1-dioxide]: the EC50 in the experiment on B16-F10 cells was found to be 3340 nM; in experiment [3] it was 6290 nM. In addition, the IC50 at PTPN2 [1] turned out to be 10 nM.

(Values after patent US20240180886A1, “INHIBITORS OF PROTEIN TYROSINE PHOSPHATASE, COMPOSITIONS, AND METHODS OF USE” (BRISTOL-MYERS SQUIBB COMPANY, priority 2022, published 2024).)
